Measurements: patent US20200333357A1, “NOVEL TFEB PATHWAY AGONISTS FOR METABOLIC DISEASES AND AGEING” (The Board of Regents of the University of Texas System, priority 2017, published 2020)
Where a name gives a salt, the structure may show the parent alone.

What was measured:
mTORC1 = test: TSC2 dependence of mTORC1 inhibition and TFEB activation in p53-/- and p53-/-, TSC2-/- MEFs; format: cell-based, mouse; settings: p53-/- vs p53-/-
HeLa cells [1] = test: Fura-2 Ca2+ imaging; format: cell-based, human; settings: exposure at ~TFEB EC90
Experimental: HeLa cells treated with compounds or DMSO for 4 hr were loaded with Fura-2-AM (3 μM) in cell culture medium for 60 min at 37° C. Cells were washed twice then incubated in fresh medium for 30 min to allow complete de-esterification of intracellular AM esters. Imaging was performed at 37° C. with 5% CO2 on an epifluorescent microscope (Deltavision, Applied Precision) equipped with a digital monochrome Coolsnap HQ2 camera (Roper Scientific, Tucson, Ariz.). Fluorescence images were collected using SoftWoRx v3.4.5 (Universal Imaging, Downingtown, Pa.). Data were recorded at excitation/emission wavelengths of 340/510 nm (Fura-340 filter) and 387/510 nm (Fura-380 filter). The single band pass excitation filter for Fura-340 and Fura-380 is 26 nm and 11 nm, respectively, and the band pass of emission filters for Fura-340 and Fura-380 is 84 nm. Intracellular calibration of Fura-2 was accomplished by manipulating the Ca^2+ levels inside cells using the ionphore ionomycin (20 μM, Sigma-Aldrich) and by incubating cells in buffers with various Ca^2+ concentrations (calcium calibration buffer kit—Invitrogen). Intracellular fluorescence ratios were determined using ImageJ software. Images were background-corrected by subtracting the mean pixel values of a cell-free region near the region of interest. Fluorescent intensity ratio R=F340/F380, and Ca^2+ concentration can be calculated from Equation 3, where Kd can be obtained from intracellular calibration:
[Ca^2+]Kd×F380,min/F380,max×(R−Rmin)/(Rmax−R) (3)

HeLa cells [2] = test: Cellular ROS level (CellROX Green); format: cell-based, human; settings: 4 hrs
From the text: SFIGS. 5A-I. Small-molecule activators of TFEB engage different sources of Ca. (SFIG. 5A) HeLa cells were pretreated with or without N-acetyl-cysteine (NAC) for 1 hr and then treated with tert-butyl hydroperoxide (TBHP) or AD for 4 hrs. TBHP and NAC were used as positive and negative controls. A ROS-sensitive DNA dye CellROX Green was used to detect cellular ROS levels after these treatments. Endogenous TFEB localization was also shown. (SFIG. 5B) Quantification of the fluorescent intensity of CellROX Green in cells treated as in a was done by a plate reader. (SFIG. 5C) Quantification of endogenous TFEB nuclear translocation in SFIG. 5A. (SFIG. 5D) Cells were pretreated with or without 25 μM IP3R inhibitor Xestosporine C (Xesto) for 1 hr and then treated with DG, AD and IKA for indicated time. Quantification of TFEB translocation was shown in SFIG. 5E-G (graphs represent mean±s.d. **p<0.01, ***p<0.001, ****p<0.0001). (SFIG. 5H-I) RNA-interference were used to knock down inositol […] receptor type 1 (IP3R1) in GFP-TFEB cells before they were treated with DG, AD and IKA. siLONRF1 was used as a negative control. TFEB translocation percentage was quantified from images as shown in SFIG. 5I (mean±s.d. for n=3 independent experiments, ****p<0.0001). Scale bar, 20 μm.

HepG2 cells = test: Oleic acid-induced lipid accumulation (oil red O staining); settings: 1 mM oleic acid; 370 nM DG, 3.3 μM AD and IKA
[3] = Body weight of normal-diet-fed (lean) mice; format: in vivo, mouse; settings: 2.5 mg/kg DG
[4] = test system: mice under fed and fast conditions; test: Short-term starvation and chloroquine-induced acute hepatic lipid accumulation in mice; format: in vivo, mouse
Experimental: SFIGS. […] (SFIG. 6A) The body weight (left y-axis, solid symbols) and food intake (right y-axis, open symbols) measured in normal-diet-fed mice treated with vehicle or 2.5 mg/kg DG. (SFIG. 6B) Drug release curves of AD (upper panel) and IKA (lower panel) in PBS. […] (SFIG. 6F) Cells were treated with various doses DG, AD and IKA for 4 hours, and cell viability was measured immediately or after 72 hours. Dose response curves were simulated using ImageJ. (SFIG. 6G) H&E staining of heart, spleen and kidney sections from mice treated with DG, AD, IKA and their corresponding controls. Scale bar, 100 μm. (SFIG. 6H) H&E staining of liver and heart sections as well as ORO and p62/SQSTM1 IHC staining of liver sections from mice under fed and fast conditions with orally injected DG and intraperitoneally injected CQ, individually and jointly, or their corresponding control (Saline). Scale bar, 50 μm. (SFIG. 6I) The body weight of mice after the treatment described in SFIG. 6H. (SFIGS. 6J-L) Total serum levels of triglyceride, cholesterol and glucose of mice after the treatment described in SFIG. 6G.

HLH-30 = test: HLH-30::GFP nuclear localization assay; format: in vivo, C. elegans; settings: dal-1(dt2300); sqIs19 worms, 5 μM IKA
Experimental: Adult TX1941 dal-1(dt2300); sqIs19 [hlh-30p::hlh-30::GFP rol-6(+)] worms were placed on NGM plates with either a test chemical or 5% DMSO. GFP was scored at various intervals on live worms without mounting using a Zeiss Axio Zoom. V16 fluorescence dissecting microscope equipped with Axiocam 503. No difference was observed between 2 hour and overnight treatment.

C. elegans = C. elegans lifespan analysis; format: in vivo; settings: for Lifespan increase (%): vs DMSO
Experimental: The C. elegans mutant strain, fem-1(hc17ts) IV; dal-1(dt2300), obtained from the Caenorhabditis Genetics Center at the University of Minnesota, was cultured on Nematode Growth Medium (NGM) plates seeded with the E. coli strain OP50 and consistently maintained at 15° C. For lifespan assays, a total of 12 age-synchronized nematode adults were transferred to eight replicate NGM plates and grown at 25° C. to ensure sterility. Age synchronization was achieved through standard hypochlorite treatments. Eggs were placed on NGM plates supplemented with Streptomycin (100 μg ml-1) and seeded with the E. coli strain, OP50. For compound testing, 200 μl of 10 μM Ikarugamycin in 5% DMSO was spotted directly onto OP50 seeded NGM plates. Control plates were prepared by spotting 200 μl of 5% DMSO directly onto OP50 seeded NGM plates. For the first 10 days of adulthood, C. elegans were scored once a day as dead or alive by touch stimulation with a platinum wire. After day 10, animals were scored every other day. Nematodes which crawling off the agar plates were censored from subsequent lifespan analysis. Kaplan-Meier statistical analysis was performed using Prism 7 software. Lifespan experiments were done on two separate occasions.

Compound	dependence of mTORC1 inhibition / TFEB activation on TSC2 (mTORC1)	cytosolic calcium (Fura-2) (HeLa cells [1])	ROS production (HeLa cells [2])	oleic acid-induced lipid accumulation in human hepatocytes (HepG2 cells)	body weight of lean mice [3]	p62/SQSTM1 accumulation in liver ([4]; fast, CQ, DG oral)	fast-induced hepatic lipid accumulation ([4]; overnight fast, CQ intraperitoneal, DG oral co-administration)	nuclear accumulation of GFP-tagged HLH30 within intestinal cells in adults (HLH-30)	lifespan of fem-1(−);dal-1(−) animals (C. elegans; 5 μM IKA vs DMSO)	75th % (C. elegans; 1st experiment)	Mean Lifespan ± s.e.m (C. elegans; 1st experiment)	Median lifespan (C. elegans; 1st experiment)	Lifespan increase (%) (C. elegans; 1st experiment)	Mean Lifespan ± s.e.m (C. elegans; 2nd experiment)	Median lifespan (C. elegans; 2nd experiment)	Lifespan increase (%) (C. elegans; 2nd experiment)
CCCCC(CC)CNC(=N)NC(=N)NCCCCCCNC(=N)NC(=N)NCC(CC)CCCC (centres unmarked) [AD, alexidine dihydrochloride]	TSC2-dependent	induce accumulation of cytosolic calcium	comparable ROS production	significantly ameliorated	–	–	–	–	–	–	–	–	–	–	–	–
C[C@H]1O[C@@H](O[C@H]2[C@@H](O)C[C@H](O[C@H]3[C@@H](O)C[C@H](O[C@H]4CC[C@@]5(C)[C@H](CC[C@@H]6[C@@H]5C[C@@H](O)[C@]5(C)[C@@H](C7=CC(=O)OC7)CC[C@]65O)C4)O[C@@H]3C)O[C@@H]2C)C[C@H](O)[C@@H]1O [DG, digoxin, reference compound]	–	induce accumulation of cytosolic calcium	–	significantly ameliorated	did not alter	reduction	improved	–	–	–	–	–	–	–	–	–
CC[C@H]1[C@@H]2C=C[C@@H]3[C@H]4C/C=C\C(=O)NCCC[C@@H]5NC(=O)/C(=C(O)/C=C/[C@@H]4C[C@@H]3[C@H]2C[C@H]1C)C5=O [IKA, ikarugamycin]	TSC2-dependent	induce accumulation of cytosolic calcium	–	–	–	–	–	induce nuclear accumulation	significantly extended	16 days	21.8 ± 0.6 days	22 days	22.2%	23.0 ± 0.5 days	24 days	22.3%
